From PubChem BioAssay AID449762 (Southern Research Specialized Biocontainment Screening …, 2010)
Results filed as inconclusive are left out.

Tested on: M. tuberculosis H37Rv growth inhibition, 7H9 media
Assay: M. tuberculosis growth inhibition, HTS (AID 449762);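 further: bacterial growth assessed after seven days of incubation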
Details: for IC90: measured here: IC90 growth inhibition

Compound	IC50	IC90
Cc1cc(OCc2cc(C(=O)N(C)CCc3cnn(C)c3)no2)cc(C)c1Cl	26.9 µM	51.4 µM
Cc1ccccc1NC(=O)Cc1nc(COC(=O)/C=C/c2ccccc2)cs1	40.3 µM	63 µM
CN1/C(=C/C(=O)c2nc(S(C)(=O)=O)ncc2Cl)C(C)(C)c2ccccc21	3.21 µM	10.7 µM
C#CCCc1cscc1/C=[N+](\[O-])c1ccc(C(=O)OCC)cc1	99.1 µM	> 100 µM
O=C1C(=O)c2ccccc2-c2ccccc21	6.31 µM	6.91 µM
Cc1nc(-c2ccc(Cl)cc2)sc1C1(C)CC(c2ccc(C#N)cc2)=NO1 (stereo not drawn)	51.4 µM	> 100 µM
CCOC(=O)CSc1nc(C)c(C(=O)OCC)s1	3.62 µM	9.29 µM
CCCSC1=C(C#N)C(c2ccc(Cl)cc2Cl)CC(=O)N1 (stereo not drawn)		> 25 µM
Cc1cc(N2CCN(c3ccc(C(F)(F)F)cc3[N+](=O)[O-])CC2)c2ccccc2n1	21.4 µM	23.7 µM
O=C(c1cccc(-c2ccco2)c1)N1CCCC(N2CCN(c3ccc(F)cc3)CC2)C1 (stereo not drawn)	52.5 µM	78.8 µM
O=C(OCC(=O)N1CCC(c2ccccc2)=N1)c1ccc(Cl)s1	21.5 µM	> 25 µM
Cc1nn(Cc2ccccc2)c(C)c1C(=O)OCC(=O)c1cc(C)n(CC(F)(F)F)c1C	11.8 µM	35.4 µM
COc1ccccc1-n1cc2c([N+](=O)[O-])cc([N+](=O)[O-])cc2n1	< 0.2 µM	3.18 µM
COc1ccccc1C(=O)NNC(=O)C(=O)NCc1ccccc1	10.6 µM	37.9 µM
CC/C(C)=N/NC(=S)NCc1ccco1	47.5 µM	53.8 µM
Cc1cccc(N2CCN(CCCNC(=O)c3ccc(NC(=O)C4=CSCCO4)cc3)CC2C)c1 (stereo not drawn)	19.7 µM	29.2 µM
C/C(=N/Nc1cc(-c2ccccc2)nc(-c2ccccc2)n1)c1ccc(O)cc1	9.45 µM	13.8 µM
OCC(O)/C=N/Nc1nc(Nc2ccccc2)nc(Nc2ccccc2)n1 (stereo not drawn)	9.56 µM	12.5 µM
CC(C)OC(=O)/C(C#N)=C/c1ccc(-c2ccc(SC(F)F)cc2)o1	5.28 µM	16.8 µM
O=C(Nc1cccnc1Cl)c1cc(-c2ccco2)on1	41.4 µM	> 100 µM
Cc1ccc2c(c1)C1C[N+](C)(CC(=O)c3ccc(Cl)cc3Cl)CCC1N2C(=O)c1ccc(F)cc1 (stereo not drawn)	23.9 µM	27.1 µM
CCCCOc1ccc(C(=O)N/N=C/c2ccc(OCCN3CCCCC3)c(OC)c2)cc1	28.8 µM	44.6 µM
O=c1[nH]c(CN2CC=C(c3ccccc3)CC2)nc2cc(C(F)(F)F)ccc12	69.4 µM	86 µM

Compound	IC50	IC90
O=C1C(Br)=Cc2cccc3cccc1c23	< 0.2 µM	< 0.2 µM
CCOC(=O)C1=C(C)NC(SCC(=O)Nc2nc(C)cs2)=C(C#N)C1c1cccs1 (stereo not drawn)	34.4 µM	48.7 µM
COc1ccccc1N(O)C1CC(=O)N(c2ccc(Br)cc2)C1=O (stereo not drawn)	16.8 µM	32.3 µM
CN1CCN(Cc2nc3ccccc3c(=O)n2Cc2nc(-c3ccc4ccccc4c3)cs2)CC1	22.3 µM	25.7 µM
CC(C)c1nc2scc(-c3ccc(Cl)cc3)c2c(=O)n1N	81.8 µM	> 100 µM
COC(=O)c1cc(Sc2cccc(Cl)c2Cl)ccn1	20.6 µM	30.7 µM
CCn1nc(NC(=O)c2ccncc2)c2cc3cc(C)ccc3nc21	4.47 µM	47.3 µM
CCCn1c(CC)nc([N+](=O)[O-])c1S(=O)(=O)c1ccccc1	7.8 µM	22.6 µM
O=C(N/N=C/c1cn(-c2ccccc2)nc1-c1cccs1)c1ccc(Cl)cc1		> 100 µM
N#CC(C(=O)Nc1ccccc1)=C1Nc2ccccc2N1	34.9 µM	> 100 µM
CCCCOc1ccc(Br)cc1/C(C)=N/NC1=NCCN1	20.7 µM	33.3 µM
CCCCN(C)C(=O)Cc1c(OC)ccc2cc(Br)ccc12	19.5 µM	29.2 µM
CCOC(=O)CSC1=C(C#N)C(c2ccc(C)cc2)C2=C(CCCC2=O)N1 (stereo not drawn)	43.9 µM	> 100 µM
S=C(NCCc1ccccc1)NN=C1CCCCCC1	23.1 µM	26.6 µM
CN(C)c1ccc(CNc2nc(-c3ccccc3)nn2S(C)(=O)=O)cc1	12 µM	13.8 µM
COc1cccc(/C=N/Nc2ncnc3scc(-c4ccccc4)c23)c1O	1.57 µM	3.35 µM
N=c1n(Cc2ccc(Cl)cc2)c2ccccc2n1CC(O)COc1ccccc1 (stereo not drawn)	17.5 µM	25.5 µM
CC(/C=N/n1c(C2CCCCC2)n[nH]c1=S)=C\c1ccccc1	48.7 µM	54.3 µM
CCCc1ccc(C2=Nn3c(nnc3C(C)C)SC2)cc1	18.7 µM	29.7 µM
Cc1cc(C)n(-c2ccc(C(=O)Oc3ccc4c(c3)OCO4)cc2)n1	4.02 µM	13.3 µM
O=C1/C(=C/Nc2ccc3c(c2)OCO3)CCc2ccccc21	72.8 µM	> 100 µM
CCCOc1ccc2c(c1)C(=NN=C(N)N)c1cc(OCCC)ccc1-2	12.4 µM	13.1 µM
